Calls of active or inactive are those of the source. The calls are words filed in the database; no cut-off is given here.
What was measured:
Plasmodium falciparum [1] = assay: Antimalarial activity against asynchronous chloroquine-sensitive Plasmodium falciparum 3D7 assessed as parasite growth inhibition infected in erythrocytes incubated for 72 hrs by SYBR green dye based assay; type: functional, organism-based; conditions: 3D7, 72 h
THP-1 [2] = assay: Cytotoxicity against LPS-stimulated human THP-1 cells assessed as cell viability at 10 uM incubated for 12 hrs followed by LPS treatment measured after 4 hrs by PI staining based flow cytometry; type: functional; conditions: time 16.0 hrs
HEK-293T = assay: Antiinflammatory activity against HEK293T cells assessed as fold increase in TNFalpha-induced NF-kappaB activity at 10 uM incubated for 1 hr followed by TNFalpha treatment for 5 hrs by luciferase based assay (reference value: 17.1); type: functional, Homo sapiens
THP-1 [3] = assay: Antiinflammatory activity against human THP-1 cells assessed as inhibition of LPS-induced TNFalpha level at 10 uM incubated for 12 to 14 hrs followed by compound replenishment for 1 hr and subsequent LPS treatment for 4 hrs by ELISA assay (reference value: 93.43 %); type: functional; design: scale not given: the % may be the effect or the level left; conditions: time 17-19 hrs
Plasmodium falciparum [4] = assay: Antimalarial activity against asynchronous chloroquine-resistant Plasmodium falciparum K1 assessed as parasite growth inhibition infected in erythrocytes incubated for 72 hrs by SYBR green dye based assay; type: functional, organism-based; conditions: K1, 72 h
[5] = Cytotoxicity against African green monkey Vero cells incubated for 3 days by fluorescence based assay; type: toxicity, cell-based; conditions: chlorocebus sabaeus, time 3 day
Mus musculus [6] = assay: Antiinflammatory activity in Swiss albino mouse assessed as inhibition of carrageenan-induced paw edema at 50 mg/kg,po pretreated for 1 hr followed by carrageenan administration measured after 4 hrs relative to control; type: functional; conditions: time 5 hrs
[7] = Stability in simulated intestinal fluid assessed as compound remaining at pH 6.8 measured upto 120 mins by LC-MS analysis; type: ADME; conditions: read-out: Stability
[8] = Half life in fasted Swiss mouse at 50 mg/kg, po measured upto 48 hrs by LC-MS/MS analysis; type: ADME, organism-based; conditions: in vivo
[9] = Volume of distribution in fasted Swiss mouse at 50 mg/kg, po measured upto 48 hrs by LC-MS/MS analysis; type: ADME, organism-based; conditions: in vivo
[10] = MRT in fasted Swiss mouse at 50 mg/kg, po measured upto 48 hrs by LC-MS/MS analysis; type: ADME, organism-based; conditions: in vivo
Mus musculus [11] = assay: Antiinflammatory activity in Swiss albino mouse assessed as inhibition of carrageenan-induced paw edema at 25 mg/kg,po pretreated for 1 hr followed by carrageenan administration measured after 4 hrs relative to control; type: functional; conditions: time 5 hrs
Mus musculus [12] = assay: Antiinflammatory activity in Swiss albino mouse assessed as inhibition of carrageenan-induced paw edema at 50 mg/kg,po pretreated for 1 hr followed by carrageenan administration measured after 6 hrs relative to control; type: functional; conditions: time 7 hrs
[13] = Cmax in fasted Swiss mouse at 50 mg/kg, po measured upto 48 hrs by LC-MS/MS analysis; type: ADME, organism-based; design: time < 48 hrs, dose 50 mg/kg, route po; conditions: in vivo
[14] = Stability in simulated physiological fluid assessed as compound remaining at pH 7.4 measured upto 120 mins by LC-MS analysis; type: physicochemical; conditions: read-out: Stability
[15] = Stability in mouse plasma assessed as compound remaining at 10 uM measured upto 120 mins by LC-MS analysis; type: ADME, cell-free; conditions: read-out: Stability
[16] = AUC in fasted Swiss mouse at 50 mg/kg, po measured upto 48 hrs by LC-MS/MS analysis; type: ADME, organism-based; design: time < 48 hrs, dose 50 mg/kg, route po; conditions: in vivo
[17] = Tmax in fasted Swiss mouse at 50 mg/kg, po measured upto 48 hrs by LC-MS/MS analysis; type: ADME, organism-based; conditions: in vivo
[18] = Clearance in fasted Swiss mouse at 50 mg/kg, po measured upto 48 hrs by LC-MS/MS analysis; type: ADME, organism-based; conditions: in vivo
Mus musculus [19] = assay: Antiinflammatory activity in Swiss albino mouse assessed as inhibition of carrageenan-induced paw edema at 100 mg/kg,po pretreated for 1 hr followed by carrageenan administration measured after 6 hrs relative to control; type: functional; conditions: time 7 hrs
Mus musculus [20] = assay: Antiinflammatory activity in Swiss albino mouse assessed as inhibition of carrageenan-induced paw edema at 25 mg/kg,po pretreated for 1 hr followed by carrageenan administration measured after 6 hrs relative to control; type: functional; conditions: time 7 hrs
[21] = Stability in simulated gastric fluid assessed as compound remaining at pH 1.2 measured upto 120 mins by LC-MS analysis; type: ADME; conditions: read-out: Stability
THP-1 [22] = assay: Downregulation of LPS-induced JNK1/2 phosphorylation in human THP-1 cells at 10 uM incubated for 60 mins followed by LPS treatment 90 mins by […]; type: functional, cell-based; conditions: time 150.0 min
Mus musculus [23] = assay: Antiinflammatory activity in Swiss albino mouse assessed as inhibition of carrageenan-induced paw edema at 100 mg/kg,po pretreated for 1 hr followed by carrageenan administration measured after 4 hrs relative to control; type: functional; conditions: time 5 hrs
THP-1 [24] = assay: Downregulation of LPS-induced ERK1/2 phosphorylation in human THP-1 cells at 10 uM incubated for 60 mins followed by LPS treatment 90 mins by […]; type: functional, cell-based; conditions: time 150.0 min
[25] = Toxicity in Swiss mouse infected with chloroquine-resistant Plasmodium yoelii N67 assessed as mean survival time at 100 mg/kg/day, po for 4 days (reference value: 7.2 +/- 1.3 day); type: organism-based; conditions: in vivo, 96 h, time 4 day
Plasmodium yoelii [26] = assay: Antimalarial activity against chloroquine-resistant Plasmodium yoelii N67 infected in Swiss mouse assessed as parasite growth suppression at 100 mg/kg/day, po for 4 days measured on day 7 relative to control; type: functional; conditions: time 7 day
Plasmodium yoelii [27] = assay: Antimalarial activity against chloroquine-resistant Plasmodium yoelii N67 infected in Swiss mouse assessed as parasite growth suppression at 100 mg/kg/day, po for 4 days measured on day 4 relative to control; type: functional; conditions: time 4 day

Row | SMILES | IC50 (Plasmodium falciparum [1]) [µM] | Activity (THP-1 [2]) | fold change (FC) (HEK-293T) | Activity (THP-1 [3]) [%] | further results
1 | CCc1ccc(-c2c(-c3ccccc3)c(C(=O)Nc3ccccc3)c(C)n2CCC2=CC(=O)OC2O)cc1 (stereo not given) | 1.55 | Active | 7.8 | 89.93 | 
2 | Cc1c(C(=O)Nc2ccccc2)c(-c2ccccc2)c(-c2ccc(Cl)cc2)n1CC1=CC(=O)OC1O (stereo not given) | 1.36 | Active | 12.1 | 88.38 | 
3 | COc1ccc(-c2c(C(=O)Nc3ccccc3)c(C)n(CCC3=CC(=O)OC3O)c2-c2ccc(OC)cc2)cc1 (stereo not given) | 1.49 | Active | 8.6 | 85.2 | 
4 | Cc1c(C(=O)Nc2ccccc2)c(-c2ccccc2)c(-c2ccccc2)n1CC1=CC(=O)OC1O (stereo not given) | 1.42 | Active | 10.6 | 78.73 | 
5 | O=C1OC(O)C(Cl)=C1Cl (stereo not given) [MUCOCHLORIC ACID] | 4 |  |  |  | IC50 (Plasmodium falciparum [4]): > 5 µM
6 | COc1ccc(-c2c(C(=O)Nc3ccccc3)c(C)n(CC3=CC(=O)OC3O)c2-c2ccc(OC)cc2)cc1 (stereo not given) | 1.8 | Active | 9.8 | 19.82 | 
7 | Cc1ccc(-c2c(C(=O)Nc3ccccc3)c(C)n(CCC3=CC(=O)OC3O)c2-c2ccc(C)cc2)cc1 (stereo not given) | > 5 |  |  |  | 
8 | CCN(CC)CCCC(C)Nc1ccnc2cc(Cl)ccc12 (stereo not given) [CHLOROQUINE] |  |  |  |  | CC50 at 72 h [5]: 187 µM
9 | Cc1c(C(=O)Nc2ccccc2)c(-c2ccccc2)c(-c2ccccc2)n1CCC1=CC(=O)OC1O (stereo not given) | 2.83 | Active | 10.3 | 13.5 | 
10 | CC1=CCC[C@@H]2[C@@](C)(CCC3=CC(=O)O[C@@H]3O)[C@H](C)CC[C@@]12C | 1.27 |  |  |  | IC50 (Plasmodium falciparum [4]): 2.88 µM
11 | Cc1c(C(=O)Nc2ccccc2)c(-c2ccccc2)c(-c2ccc(Cl)cc2)n1CCC1=CC(=O)OC1O (stereo not given) | 2.19 | Active | 10.4 | 35.92 | 
12 | Cc1c(C(=O)Nc2ccccc2)c(-c2ccc(Cl)cc2)c(-c2ccc(Cl)cc2)n1CCC1=CC(=O)OC1O (stereo not given) | 1.47 | Active | 9.9 | 92.36 | inhibition in vivo at 50 mg/kg (Mus musculus [6]): 62%; remaining at 2 h [7]: 84.4%; half-life [8]: 52.2 min; Vd [9]: 754.5 L/kg; MRT [10]: 61.2 min; inhibition in vivo at 25 mg/kg (Mus musculus [11]): 61%; inhibition in vivo at 50 mg/kg (Mus musculus [12]): 56%; Cmax [13]: 0.11 µg/mL; remaining at 2 h [14]: 87.9%; remaining at 2 h, 10 µM [15]: 86.5%; AUC at 48 h [16]: 0.0869 µg·h/mL; Tmax [17]: 15 min; CL/F [18]: 589 L/h/kg; inhibition in vivo at 100 mg/kg (Mus musculus [19]): 65%; inhibition in vivo at 25 mg/kg (Mus musculus [20]): 56%; remaining at 2 h [21]: 89.5%; Activity (THP-1 [22]): Active; inhibition in vivo at 100 mg/kg (Mus musculus [23]): 73%; Activity (THP-1 [24]): Active
13 | Cc1c(C(=O)Nc2ccccc2)c(-c2ccc(Cl)cc2)c(-c2ccc(Cl)cc2)n1CC1=CC(=O)OC1O (stereo not given) | 1.87 | Active | 8.5 | 91.04 | 
14 | Cc1c(C(=O)Nc2ccccc2)c(-c2ccccc2)c(-c2ccc(F)cc2)n1CCC1=CC(=O)OC1O (stereo not given) | 0.88 | Active | 11.4 | 89.15 | CC50 at 72 h [5]: > 200 µM; MST [25]: 8 days; Activity (Plasmodium yoelii [26]): 46.6%; IC50 (Plasmodium falciparum [4]): 4.31 µM; Activity (Plasmodium yoelii [27]): 56.4%
15 | Cc1c(C(=O)Nc2ccccc2)c(-c2ccccc2)c(-c2ccc(F)cc2)n1CC1=CC(=O)OC1O (stereo not given) | 2.66 | Active | 10.3 | 83.11 | 
16 | CC(C)c1c(C(=O)Nc2ccccc2)c(-c2ccccc2)c(-c2ccc(F)cc2)n1CC[C@@H](O)C[C@@H](O)CC(=O)O [ATORVASTATIN] | 4.6 |  |  |  | IC50 (Plasmodium falciparum [4]): > 5 µM
17 | Cc1c(C(=O)Nc2ccccc2)c(-c2ccc(F)cc2)c(-c2ccc(F)cc2)n1CC1=CC(=O)OC1O (stereo not given) | 4.62 | Active | 9 | 32.69 | 
18 | Cc1ccc(-c2c(-c3ccccc3)c(C(=O)Nc3ccccc3)c(C)n2CCC2=CC(=O)OC2O)cc1 (stereo not given) | 0.6 | Active | 13.1 | 46.46 | CC50 at 72 h [5]: > 200 µM; MST [25]: 14.6 days; Activity (Plasmodium yoelii [26]): 80.68%; IC50 (Plasmodium falciparum [4]): 3.92 µM; Activity (Plasmodium yoelii [27]): 34.6%
19 | CCc1ccc(-c2c(-c3ccccc3)c(C(=O)Nc3ccccc3)c(C)n2CC2=CC(=O)OC2O)cc1 (stereo not given) | 1.21 | Active | 7 | 89.97 | 
20 | Cc1ccc(-c2c(-c3ccccc3)c(C(=O)Nc3ccccc3)c(C)n2CC2=CC(=O)OC2O)cc1 (stereo not given) | 1.31 | Active | 12.5 | 84 | 
21 | O=C1C=C(O)CO1 | 4.88 |  |  |  | IC50 (Plasmodium falciparum [4]): > 5 µM
22 | COc1ccc(-c2c(-c3ccccc3)c(C(=O)Nc3ccccc3)c(C)n2CC2=CC(=O)OC2O)cc1 (stereo not given) | 3.39 | Active | 10.4 | 79.88 | 
23 | Cc1c(C(=O)Nc2ccccc2)c(-c2ccccc2)c(-c2ccc(C(C)C)cc2)n1C | 2.94 |  |  |  | IC50 (Plasmodium falciparum [4]): 4.34 µM
24 | Cc1c(C(=O)Nc2ccccc2)c(-c2ccc(F)cc2)c(-c2ccc(F)cc2)n1CCC1=CC(=O)OC1O (stereo not given) | > 5 | Active | 9.7 | 12.55 | 
25 | COc1ccc(-c2c(-c3ccccc3)c(C(=O)Nc3ccccc3)c(C)n2CCC2=CC(=O)OC2O)cc1 (stereo not given) | > 5 |  |  |  | 

Source: ChEMBL document CHEMBL5360578, “Design, synthesis and evaluation of novel pyrrole-hydroxybutenolide hybrids as promising antiplasmodial and anti-inflammatory agents” (Eur J Med Chem, 2023)
